Source: patent US20060009403A1, “Dna demethylase antisense and chemotherapy combination” (Centre National De La Recherche Scientifique (CNRS), priority 2002, published 2006)

Tested on: H1299 tumor grafts (human non-small cell lung tumors)
Assay: Growth of H1299 tumor grafts in nude mice after intratumor electrotransfer of antisense plasmid and/or intramuscular bleomycin (Experiments 1 and 2)
Assay type: in vivo
Settings: for Number of tumors cured (tumors no longer measurable): cured/total
Procedure: Two series of experiments were carried out in nude mice weighing 18 to 20 g. The mice were implanted on one side with H1299 tumor grafts (human non-small cell lung tumors) of approximately 20 mm^3. The tumors developed, to reach a volume of 20 to 150 mm^3. The mice were sorted as a function of the size of the tumors and were divided up into homogeneous batches reaching tumor volumes of 50 to 80 mm^3 (n=10 to 13). The mice were anesthetized with a mixture of ketamine and xylazine.
A series of tumors was subjected to no treatment.
Five electrotransfers of 50 μg of plasmid in 80 μl of 150 mM NaCl were carried out in the tumors on the days indicated by the arrows. The plasmid solution was injected longitudinally at the periphery of the tumor using a Hamilton syringe. The lateral faces of the tumors were coated with conducting gel and the tumors were placed between 2 flat stainless steel electrodes 0.4 to 0.7 cm apart. Twenty to 30 seconds after the injection, the plasmids were electrotransferred using a commercial (square) electrical pulse generator (Jouan Electropulser PS 15). Each tumor was subjected to 500 V/cm delivered in 8 pulses lasting 20 msec at a frequency of 1 Hertz.
Twenty-five μg of bleomycin/animal in 50 μl of 150 mM NaCl were injected bilaterally into the tibialis cranialis muscle and, 30 minutes later, each tumor was subjected to 1 electrotransfer as explained above.
(§1) Twenty-five μg of bleomycin/animal in 50 μl of 150 mM NaCl were injected bilaterally into the tibialis cranialis muscle and, 30 minutes later, 50 μg of antisense plasmid in 80 μl of 150 mM NaCl were injected and electrotransferred. Four other electrotransfers of 50 μg of antisense plasmid in 80 μl of 150 mM NaCl were subsequently carried out in the tumors on the days indicated by the arrows.
The tumor volumes were measured individually for each tumor using an electronic slide gauge with a digital display, according to the formula (length×width×thickness)/2.
The median of the tumor volumes was reported in the form of a graph, as a function of time.
Five electrotransfers of 80 μl of 150 mM NaCl were carried out in the tumors on the days indicated by the arrows.
as §1, with “Fifty” for “Twenty-five μg of bleomycin/animal in 50”, “later, an electrotransfer of” for “later,”, “was carried out.” for “were injected and electrotransferred.”
Twenty-five μg of bleomycin/animal in 50 μl of 150 mM NaCl were injected bilaterally into the tibialis cranialis muscle and, 30 minutes later, each tumor was injected with 80 μl of 150 mM NaCl and subjected to an electrotransfer. Four other electrotransfers of 80 μl of 150 mM NaCl were subsequently carried out in the tumors on the days indicated by the arrows.
as §1, with “50-μl” for “50 μl”, “in” for “into”, “later, an electrotransfer of” for “later,”, “was carried out.” for “were injected and electrotransferred.”

bleomycin
Delay in growth, treatment versus untreated (Experiment 1): 30 days | D1000, number of days required to reach a tumor volume of 1000 mm^3 (Experiment 1 (Table 3)): D44 days | Day 1000 mm^3 (median), number of days to reach 1000 mm^3 of tumor volume (Experiment 1, H1299 tumors, 25 μg bleomycin i.m. and/or 5 electrotransfers of 50 μg plasmid): 44.40 days | Number of tumors cured (tumors no longer measurable) (Experiment 1): 1/13 | Delay in growth, treatment versus electro/NaCl (Experiment 2): 17 days | D1000, number of days required to reach a tumor volume of 1000 mm^3 (Experiment 2 (Table 3)): D38 days | D 1000 mm^3 (median), number of days to reach 1000 mm^3 of tumor volume (Experiment 2, H1299 tumors, 25 μg bleomycin i.m. and/or 5 electrotransfers of 50 μg plasmid): 38.00 days | Number of tumors cured (tumors no longer measurable) (Experiment 2): 1/11 | Tumor (complete) cure rate (H1299 tumors, summary over Experiments 1 and 2): 10%
